Assay results reported in patent publication US20260070945A1, “MACROCYCLIC IMMUNOMODULATORS” (Bristol-Myers Squibb Company, priority 2022, published 2026).
*1 amine or outer side, *2 acyl side, *3 side chain or, on linkers, in order; H or OH if unused. Where a SMILES comes first, the peptide text is derived from it. Bridges are numbered along the chain shown (N, C = ends). [ ]: non-standard residue; d: D form. The star is where a group is joined. ξ: configuration not given here. Phe(4-COOH) = N[C@@H](Cc1ccc(C(=O)O)cc1)C(=O)O; Bip = N[C@@H](Cc1ccc(-c2ccccc2)cc1)C(=O)O; Phe(3-Me) = Cc1cccc(C[C@H](N)C(=O)O)c1; NMeE = CN[C@@H](CCC(=O)O)C(=O)O; NMeQ = CN[C@@H](CCC(N)=O)C(=O)O; Cha = N[C@@H](CC1CCCCC1)C(=O)O; Cit = NC(=O)NCCC[C@H](N)C(=O)O; NMeN = CN[C@@H](CC(N)=O)C(=O)O; Thr(3ξ) = CC(O)[C@H](N)C(=O)O; CH2COCH2 = O=C(C[*:1])C[*:2]; hSer = N[C@@H](CCO)C(=O)O; Carboxymethyl = O=C(O)C*; NMeA = CN[C@@H](C)C(=O)O; Aun = NCCCCCCCCCCC(=O)O; Dab = NCC[C@H](N)C(=O)O; AEEA = NCCOCCOCC(=O)O; ξV = CC(C)C(N)C(=O)O

target: T1, PD-1/PD-L1 interaction (PE-labeled human PD-L1-Ig binding to Jurkat cell line over-expressing human PD-1) (Homo sapiens, UniProt Q15116); assay: Jurkat-PD-1 Cell Binding High-Content Screening Assay (CBA); details: Jurkat-hPD-1 cells, PE-labeled PD-L1-Ig 20 nM final; read-out: Jurkat HPD1 PDL1 IC50
T1 construct: expressed in transfected cells; host or cells: Jurkat
T1 sequence (Q15116 25-288): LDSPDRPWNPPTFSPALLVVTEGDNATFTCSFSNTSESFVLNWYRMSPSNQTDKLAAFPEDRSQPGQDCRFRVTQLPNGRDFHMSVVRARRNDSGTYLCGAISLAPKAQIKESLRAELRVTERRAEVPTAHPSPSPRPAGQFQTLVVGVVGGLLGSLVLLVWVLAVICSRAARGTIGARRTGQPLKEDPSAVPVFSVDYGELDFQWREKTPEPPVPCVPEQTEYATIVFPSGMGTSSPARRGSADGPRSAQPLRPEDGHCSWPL
Method in brief: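 Compound is added first to the PD-1-expressing Jurkat cells and held 2 h at 37 °C in serum-containing DMEM. The fluorescent PD-L1 fusion follows at 20 nM final for 1 h. Fixed, Hoechst-stained cells are then imaged for bound label.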

Row | Structure (SMILES) | IC50
1 | CC(C)C[C@H]1NC(=O)[C@H](CC(N)=O)N(C)C(=O)[C@H](C(C)C)NC(=O)[C@H](Cc2ccc(-c3ccccc3)cc2)NC(=O)[C@H](C(C)C)NC(=O)[C@H](Cc2c[nH]c3ccccc23)NC(=O)[C@H](CC(=O)O)NC(=O)[C@H](Cc2ccc(OCC(=O)O)cc2)NC(=O)[C@H](C(C)O)NC(=O)CSC[C@@H](C(=O)N[C@@H](CCN)C(=O)NCCCCCCCCCCC(=O)O)NC(=O)[C@H](C(C)O)NC(=O)[C@H](C(C)C)NC(=O)[C@H](CC2CCCCC2)NC(=O)[C@H](CCN)NC1=O (stereo partly drawn) [Example 2243] ({CH2CO}-[Thr(3ξ)]Y(Carboxymethyl)DWV[Bip]V[NMeN][dL][Dab][Cha]V[Thr(3ξ)]C[Dab][Aun]-OH; thioether N-14) | 0.026 µM
2 | CC(C)C[C@@H]1NC(=O)[C@H](Cc2c[nH]c3ccccc23)NC(=O)[C@H](CC(=O)O)NC(=O)[C@H](Cc2ccc(C(=O)O)cc2)NC(=O)[C@H](Cc2ccc(OCC(=O)O)cc2)NC(=O)CSC[C@@H](C(=O)NCCOCCOCC(=O)NCCCCCCCCCCC(=O)O)NC(=O)[C@H](CCO)NC(=O)[C@H](C(C)C)NC(=O)[C@H](CC2CCCCC2)NC(=O)[C@H](CCN)NC(=O)[C@@H](CC(C)C)NC(=O)[C@H](C)N(C)C(=O)[C@H](CCC(N)=O)NC(=O)[C@H](Cc2ccc(-c3ccccc3)cc2)NC1=O [Example 2244] ({CH2CO}-Y(Carboxymethyl)[Phe(4-COOH)]DWL[Bip]Q[NMeA][dL][Dab][Cha]V[hSer]C[AEEA][Aun]-OH; thioether N-14) | 0.0386 µM
3 | Cc1cccc(C[C@@H]2NC(=O)[C@H](CC(=O)O)NC(=O)[C@H](Cc3ccc(C(=O)O)cc3)NC(=O)[C@H](Cc3ccc(OCC(=O)O)cc3)NC(=O)CSC[C@@H](C(=O)NCCCCCCCCCCC(=O)O)NC(=O)[C@H](CCCNC(N)=O)NC(=O)[C@H](C(C)C)NC(=O)[C@H](CC3CCCCC3)NC(=O)[C@H](CCN)NC(=O)[C@@H](CC(C)C)NC(=O)[C@H](C)N(C)C(=O)[C@H](CC(C)C)NC(=O)[C@H](Cc3ccc(-c4ccccc4)cc3)NC(=O)[C@H](CC(C)C)NC2=O)c1 [Example 2245] ({CH2CO}-Y(Carboxymethyl)[Phe(4-COOH)]D[Phe(3-Me)]L[Bip]L[NMeA][dL][Dab][Cha]V[Cit]C[Aun]-OH; thioether N-14) | 0.025 µM
4 | Cc1cccc(C[C@@H]2NC(=O)[C@H](CC(=O)O)NC(=O)[C@H](Cc3ccc(C(=O)O)cc3)NC(=O)[C@H](Cc3ccc(OCC(=O)O)cc3)NC(=O)CSC[C@@H](C(=O)NCCCCCCCCCCC(=O)O)NC(=O)[C@H](CCCNC(N)=O)NC(=O)[C@H](C(C)C)NC(=O)[C@H](CC3CCCCC3)NC(=O)[C@H](CCN)NC(=O)[C@@H](CC(C)C)NC(=O)[C@H](C)N(C)C(=O)[C@H](CCC(N)=O)NC(=O)[C@H](Cc3ccc(-c4ccccc4)cc3)NC(=O)[C@H](CC(C)C)NC2=O)c1 [Example 2246] ({CH2CO}-Y(Carboxymethyl)[Phe(4-COOH)]D[Phe(3-Me)]L[Bip]Q[NMeA][dL][Dab][Cha]V[Cit]C[Aun]-OH; thioether N-14) | 0.0161 µM
5 | CC(=O)NCCCC[C@@H]1NC(=O)[C@H](Cc2ccc(-c3ccccc3)cc2)NC(=O)[C@H](CC(C)C)NC(=O)[C@H](Cc2cccc(C)c2)NC(=O)[C@H](CC(=O)O)NC(=O)[C@H](Cc2ccc(C(=O)O)cc2)NC(=O)[C@H](Cc2ccc(OCC(=O)O)cc2)NC(=O)CSC[C@@H](C(=O)NCCCCCCCCCCC(=O)O)NC(=O)[C@H](CCCNC(N)=O)NC(=O)[C@H](C(C)C)NC(=O)[C@H](CC2CCCCC2)NC(=O)[C@H](CCN)NC(=O)[C@@H](CC(C)C)NC(=O)[C@H](C)N(C)C1=O [Example 2247] ({CH2CO}-Y(Carboxymethyl)[Phe(4-COOH)]D[Phe(3-Me)]L[Bip]K(Ac)[NMeA][dL][Dab][Cha]V[Cit]C[Aun]-OH; thioether N-14) | 0.0049 µM
6 | Cc1cccc(C[C@@H]2NC(=O)[C@H](CC(=O)O)NC(=O)[C@H](Cc3ccc(OCC(=O)O)cc3)NC(=O)[C@H](CC(N)=O)NC(=O)CSC[C@@H](C(=O)NCCCCCCCCCCC(=O)O)NC(=O)[C@H](CCCNC(N)=O)NC(=O)[C@H](C(C)C)NC(=O)[C@H](CC3CCCCC3)NC(=O)[C@H](CCN)NC(=O)[C@@H](CC(C)C)NC(=O)[C@H](C)N(C)C(=O)C(C(C)C)NC(=O)[C@H](Cc3ccc(-c4ccccc4)cc3)NC(=O)[C@H](CC(C)C)NC2=O)c1 (stereo partly drawn) [Example 2248] ({CH2CO}-NY(Carboxymethyl)D[Phe(3-Me)]L[Bip][ξV][NMeA][dL][Dab][Cha]V[Cit]C[Aun]-OH; thioether N-14) | 0.011 µM
7 | Cc1cccc(C[C@@H]2NC(=O)[C@H](CC(=O)O)NC(=O)[C@H](Cc3c[nH]cn3)NC(=O)[C@H](Cc3ccc(OCC(=O)O)cc3)NC(=O)CSC[C@@H](C(=O)NCCCCCCCCCCC(=O)O)NC(=O)[C@H](CCC(N)=O)NC(=O)[C@H](C(C)C)NC(=O)[C@H](CC3CCCCC3)NC(=O)[C@H](CCN)NC(=O)[C@@H](CC(C)C)NC(=O)[C@H](C)N(C)C(=O)[C@H](Cc3ccc(O)cc3)NC(=O)[C@H](Cc3ccc(-c4ccccc4)cc3)NC(=O)[C@H](CC(C)C)NC2=O)c1 [Example 2251] ({CH2CO}-Y(Carboxymethyl)HD[Phe(3-Me)]L[Bip]Y[NMeA][dL][Dab][Cha]VQC[Aun]-OH; thioether N-14) | 0.169 µM
8 | Cc1cccc(C[C@@H]2NC(=O)[C@H](CC(=O)O)NC(=O)[C@H](Cc3c[nH]cn3)NC(=O)[C@H](Cc3ccc(OCC(=O)O)cc3)NC(=O)CSC[C@@H](C(=O)NCCCCCCCCCCC(=O)O)NC(=O)[C@H](CO)NC(=O)[C@H](C(C)C)NC(=O)[C@H](CC3CCCCC3)NC(=O)[C@H](CCN)NC(=O)[C@@H](CC(C)C)NC(=O)[C@H](C)N(C)C(=O)[C@H](Cc3ccc(OCC(=O)O)cc3)NC(=O)[C@H](Cc3ccc(-c4ccccc4)cc3)NC(=O)[C@H](CC(C)C)NC2=O)c1 [Example 2252] ({CH2CO}-Y(Carboxymethyl)HD[Phe(3-Me)]L[Bip]Y(Carboxymethyl)[NMeA][dL][Dab][Cha]VSC[Aun]-OH; thioether N-14) | 0.127 µM
9 | CC(=O)COc1ccc(C[C@@H]2NC(=O)[C@H](CCCNC(=N)N)NC(=O)CSC[C@@H](C(=O)N[C@@H](CCN)C(=O)NCCCCCCCCCCC(=O)O)NC(=O)[C@H](C(C)O)NC(=O)[C@H](C(C)C)NC(=O)[C@H](CC3CCCCC3)NC(=O)[C@H](CCN)NC(=O)[C@@H](CC(C)C)NC(=O)[C@H](C)N(C)C(=O)[C@H](Cc3ccc(OCC(=O)O)cc3)NC(=O)[C@H](Cc3ccc(-c4ccccc4)cc3)NC(=O)[C@H](CC(C)C)NC(=O)[C@H](Cc3cccc(C)c3)NC(=O)[C@H](CC(=O)O)NC2=O)cc1 (stereo partly drawn) [Example 2253] ({CH2CO}-RY(CH2COCH2)D[Phe(3-Me)]L[Bip]Y(Carboxymethyl)[NMeA][dL][Dab][Cha]V[Thr(3ξ)]C[Dab][Aun]-OH; thioether N-14) | 0.0119 µM
10 | Cc1cccc(C[C@@H]2NC(=O)[C@H](CC(=O)O)NC(=O)[C@H](Cc3ccc(C(=O)O)cc3)NC(=O)[C@H](Cc3ccc(OCC(=O)O)cc3)NC(=O)CSC[C@@H](C(=O)NCCCCCCCCCCC(=O)O)NC(=O)[C@H](CCC(=O)O)NC(=O)[C@H](C(C)C)NC(=O)[C@H](CC3CCCCC3)NC(=O)[C@H](CCN)NC(=O)[C@@H](CC(C)C)NC(=O)[C@H](C)N(C)C(=O)[C@H](Cc3ccc(O)cc3)NC(=O)[C@H](Cc3ccc(-c4ccccc4)cc3)NC(=O)[C@H](CC(C)C)NC2=O)c1 [Example 2254] ({CH2CO}-Y(Carboxymethyl)[Phe(4-COOH)]D[Phe(3-Me)]L[Bip]Y[NMeA][dL][Dab][Cha]VEC[Aun]-OH; thioether N-14) | 0.183 µM
11 | Cc1cccc(C[C@@H]2NC(=O)[C@H](CC(=O)O)NC(=O)[C@H](Cc3ccc(OCC(=O)O)cc3)NC(=O)[C@H](Cc3ccc(OCC(=O)O)cc3)NC(=O)CSC[C@@H](C(=O)NCCCCCCCCCCC(=O)O)NC(=O)[C@H](CCC(=O)O)NC(=O)[C@H](C(C)C)NC(=O)[C@H](CC3CCCCC3)NC(=O)[C@H](CCN)NC(=O)[C@@H](CC(C)C)NC(=O)[C@H](CCC(N)=O)N(C)C(=O)[C@H](Cc3ccc(O)cc3)NC(=O)[C@H](Cc3ccc(-c4ccccc4)cc3)NC(=O)[C@H](Cc3ccc(O)cc3)NC2=O)c1 [Example 2255] ({CH2CO}-Y(Carboxymethyl)Y(Carboxymethyl)D[Phe(3-Me)]Y[Bip]Y[NMeQ][dL][Dab][Cha]VEC[Aun]-OH; thioether N-14) | 0.0631 µM
12 | Cc1cccc(C[C@@H]2NC(=O)[C@H](CC(=O)O)NC(=O)[C@H](Cc3ccc(OCC(=O)O)cc3)NC(=O)[C@H](Cc3ccc(OCC(=O)O)cc3)NC(=O)CSC[C@@H](C(=O)NCCCCCCCCCCC(=O)O)NC(=O)[C@H](CCC(=O)O)NC(=O)[C@H](C(C)C)NC(=O)[C@H](CC3CCCCC3)NC(=O)[C@H](CCN)NC(=O)[C@@H](CC(C)C)NC(=O)[C@H](CCC(=O)O)N(C)C(=O)[C@H](Cc3ccc(O)cc3)NC(=O)[C@H](Cc3ccc(-c4ccccc4)cc3)NC(=O)[C@H](Cc3ccc(O)cc3)NC2=O)c1 [Example 2256] ({CH2CO}-Y(Carboxymethyl)Y(Carboxymethyl)D[Phe(3-Me)]Y[Bip]Y[NMeE][dL][Dab][Cha]VEC[Aun]-OH; thioether N-14) | 0.0988 µM
13 | Cc1cccc(C[C@@H]2NC(=O)[C@H](CC(=O)O)NC(=O)[C@H](Cc3cnc[nH]3)NC(=O)[C@H](Cc3ccc(OCC(=O)O)cc3)NC(=O)CSC[C@@H](C(=O)NCCCCCCCCCCC(=O)O)NC(=O)[C@H](CCCNC(N)=O)NC(=O)[C@H](C(C)C)NC(=O)[C@H](CC3CCCCC3)NC(=O)[C@H](CCN)NC(=O)[C@@H](CC(C)C)NC(=O)[C@H](C)N(C)C(=O)[C@H](Cc3ccc(O)cc3)NC(=O)[C@H](Cc3ccc(-c4ccccc4)cc3)NC(=O)[C@H](CCC(N)=O)NC2=O)c1 [Example 2257] ({CH2CO}-Y(Carboxymethyl)HD[Phe(3-Me)]Q[Bip]Y[NMeA][dL][Dab][Cha]V[Cit]C[Aun]-OH; thioether N-14) | 0.199 µM
